# Measurements reported in patent US9682141B2, “Combination of kinase inhibitors and uses thereof” (INTELLIKINE LLC, priority 2011, dated 2017).
# Where two headings read alike, the source gives them in different places.
# Experiments:
# Format in all cases: biochemical
# [1] = PI 3-Kinase (human) HTRF assay, p110δ/p85α; details: read-out: PI3K γ IC50
# PI3K α = PI3K α (Homo sapiens (Human), UniProt P42336); experiment: PI 3-Kinase (human) HTRF assay, p110α/p85α
# PI3K γ = PI3K γ (Homo sapiens (Human), UniProt P48736); experiment: PI 3-Kinase (human) HTRF assay, p110γ
# PI3K β = PI3K β (Homo sapiens (Human), UniProt P42338); experiment: PI 3-Kinase (human) HTRF assay, p110β/p85α
# Sequence of PI3K β (P42338 whole entry): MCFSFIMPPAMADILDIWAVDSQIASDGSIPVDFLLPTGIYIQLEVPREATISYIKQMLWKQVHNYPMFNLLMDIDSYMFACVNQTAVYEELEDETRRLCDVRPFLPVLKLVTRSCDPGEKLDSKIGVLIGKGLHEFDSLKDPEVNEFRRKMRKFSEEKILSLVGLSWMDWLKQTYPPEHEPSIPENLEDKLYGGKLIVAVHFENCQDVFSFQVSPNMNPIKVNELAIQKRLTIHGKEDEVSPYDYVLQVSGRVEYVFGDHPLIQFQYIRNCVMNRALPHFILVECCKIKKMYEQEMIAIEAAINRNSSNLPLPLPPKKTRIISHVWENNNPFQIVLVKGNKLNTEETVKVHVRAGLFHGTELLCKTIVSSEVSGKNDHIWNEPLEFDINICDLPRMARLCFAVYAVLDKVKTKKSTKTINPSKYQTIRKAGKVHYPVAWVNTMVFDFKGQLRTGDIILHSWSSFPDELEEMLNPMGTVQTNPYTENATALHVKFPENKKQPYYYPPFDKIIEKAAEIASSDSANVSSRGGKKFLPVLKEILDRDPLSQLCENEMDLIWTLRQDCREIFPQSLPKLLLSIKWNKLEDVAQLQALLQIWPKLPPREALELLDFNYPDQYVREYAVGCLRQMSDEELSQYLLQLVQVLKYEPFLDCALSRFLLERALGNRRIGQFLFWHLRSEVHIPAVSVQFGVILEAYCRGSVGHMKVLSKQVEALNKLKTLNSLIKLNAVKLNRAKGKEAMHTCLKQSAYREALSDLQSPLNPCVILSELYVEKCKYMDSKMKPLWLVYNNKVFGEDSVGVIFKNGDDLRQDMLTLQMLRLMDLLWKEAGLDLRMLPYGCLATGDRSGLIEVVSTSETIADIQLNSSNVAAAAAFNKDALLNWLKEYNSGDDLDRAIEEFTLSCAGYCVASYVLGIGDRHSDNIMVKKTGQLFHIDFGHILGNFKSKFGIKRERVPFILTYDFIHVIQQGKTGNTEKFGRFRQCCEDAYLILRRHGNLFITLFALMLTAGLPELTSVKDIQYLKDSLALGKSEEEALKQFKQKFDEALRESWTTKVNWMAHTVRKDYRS
# Sequence of PI3K β (P27986 whole entry partner): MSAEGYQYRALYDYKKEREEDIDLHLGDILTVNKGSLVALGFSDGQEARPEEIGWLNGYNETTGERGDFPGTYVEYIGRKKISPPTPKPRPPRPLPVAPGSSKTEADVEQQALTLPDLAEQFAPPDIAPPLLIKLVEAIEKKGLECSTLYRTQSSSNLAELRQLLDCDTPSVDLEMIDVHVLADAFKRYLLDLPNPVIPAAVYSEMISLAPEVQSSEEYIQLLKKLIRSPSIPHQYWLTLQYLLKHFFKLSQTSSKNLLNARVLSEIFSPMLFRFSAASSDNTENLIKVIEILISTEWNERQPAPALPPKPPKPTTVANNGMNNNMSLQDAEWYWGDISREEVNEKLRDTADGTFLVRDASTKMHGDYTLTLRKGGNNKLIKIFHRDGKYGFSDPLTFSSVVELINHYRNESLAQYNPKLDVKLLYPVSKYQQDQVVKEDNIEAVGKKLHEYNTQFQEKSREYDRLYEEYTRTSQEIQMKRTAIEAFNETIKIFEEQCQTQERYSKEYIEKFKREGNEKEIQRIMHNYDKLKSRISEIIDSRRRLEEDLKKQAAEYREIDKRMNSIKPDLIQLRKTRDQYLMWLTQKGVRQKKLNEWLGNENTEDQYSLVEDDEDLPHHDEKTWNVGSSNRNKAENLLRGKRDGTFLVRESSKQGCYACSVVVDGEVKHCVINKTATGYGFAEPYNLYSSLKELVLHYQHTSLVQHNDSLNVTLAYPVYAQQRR
# Sequence of PI3K α (P42336 whole entry): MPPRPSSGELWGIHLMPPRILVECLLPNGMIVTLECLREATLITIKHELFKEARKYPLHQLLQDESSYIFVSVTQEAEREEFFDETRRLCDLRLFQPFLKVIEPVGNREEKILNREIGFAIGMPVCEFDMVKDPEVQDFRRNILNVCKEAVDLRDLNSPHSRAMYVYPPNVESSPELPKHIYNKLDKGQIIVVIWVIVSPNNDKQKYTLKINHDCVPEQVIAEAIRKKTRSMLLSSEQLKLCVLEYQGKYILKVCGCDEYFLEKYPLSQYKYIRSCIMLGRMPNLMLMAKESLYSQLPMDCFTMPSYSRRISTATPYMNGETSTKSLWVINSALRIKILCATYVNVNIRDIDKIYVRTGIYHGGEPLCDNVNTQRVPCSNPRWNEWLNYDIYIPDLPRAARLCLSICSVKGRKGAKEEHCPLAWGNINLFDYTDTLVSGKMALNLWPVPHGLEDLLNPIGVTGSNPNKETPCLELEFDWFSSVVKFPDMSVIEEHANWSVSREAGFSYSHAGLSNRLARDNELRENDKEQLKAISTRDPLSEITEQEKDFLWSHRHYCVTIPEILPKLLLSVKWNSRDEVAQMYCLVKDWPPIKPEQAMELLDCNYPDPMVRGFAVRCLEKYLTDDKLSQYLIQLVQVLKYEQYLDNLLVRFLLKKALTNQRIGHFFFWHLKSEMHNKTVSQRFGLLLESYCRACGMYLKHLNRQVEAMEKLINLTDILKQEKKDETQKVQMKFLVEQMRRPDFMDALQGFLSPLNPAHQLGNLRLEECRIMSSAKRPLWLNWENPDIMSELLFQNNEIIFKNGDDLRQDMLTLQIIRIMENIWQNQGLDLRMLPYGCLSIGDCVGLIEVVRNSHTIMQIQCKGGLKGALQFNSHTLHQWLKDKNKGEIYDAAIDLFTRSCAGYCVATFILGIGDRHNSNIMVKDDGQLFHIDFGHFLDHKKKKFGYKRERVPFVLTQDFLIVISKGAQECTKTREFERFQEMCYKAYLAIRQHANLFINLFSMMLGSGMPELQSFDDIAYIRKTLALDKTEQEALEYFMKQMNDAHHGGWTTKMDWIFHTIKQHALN
# Sequence of PI3K α (P27986 whole entry partner): as the sequence (P27986 whole entry partner) above
Compound,IC50 [1] [nM],IC50 (PI3K α) [nM],IC50 (PI3K γ; read-out: PI3K δ IC50) [nM],IC50 (PI3K β) [nM],IC50 (PI3K γ; read-out: PI3K γ IC50) [nM]
Nc1nc2cc(-c3ccc4ncc(C(=O)N5CCCCC5)n4c3)ccc2o1,> 10000,< 1000,< 10000,< 10000,
Nc1ncc(-c2cnc3ccc(-c4ccc5oc(N)nc5c4)cc3n2)cn1,> 10000,< 1000,> 10000,> 10000,
CN1CCN(c2cnc3ccc(-c4ccc5oc(N)nc5c4)cc3n2)C(=O)C1,,< 10000,> 10000,,
Nc1nc2c(-c3ccc4ncc(C(=O)N5CCOCC5)n4c3)cccc2o1,> 10000,< 1000,< 10000,< 10000,
Nc1nc2cc(-c3ccc4ncc(C(=O)N5CCC(N6CC(F)(F)C6)C5)n4c3)ccc2o1 (centres unmarked),> 10000,< 1000,< 10000,> 10000,
Nc1nc2cc(-c3ccc4ncc(C(=O)N5CCC6(C5)OCCO6)n4c3)ccc2o1,> 10000,< 1000,< 10000,> 10000,
Nc1nc2cc(-c3ccc4ncc(C(=O)N5CCC(F)(F)CC5)n4c3)ccc2o1,> 10000,< 1000,< 10000,> 10000,
Nc1nc2cc(-c3ccc4ncc(C(=O)N5CC(N6CCC(F)(F)C6)C5)n4c3)ccc2o1,< 10000,< 100,< 1000,> 10000,
Nc1nc2cc(-c3ccc4ncc(C(=O)N5CCC(F)CC5)n4c3)ccc2o1,> 10000,< 1000,< 100,> 10000,
Nc1nc2cc(-c3ccc4ncc(C(=O)N5CC6CCC(C5)O6)n4c3)ccc2o1,> 10000,< 1000,< 100,< 10000,
O=C(c1cnc2ccc(-c3ccc4c(Nc5ccccc5)nsc4c3)cn12)N1CCOCC1,> 10000,> 10000,> 10000,> 10000,
O=C(c1cnc2ccc(-c3cncc4[nH]ncc34)cn12)N1CCOCC1,> 10000,< 100,> 10000,> 10000,
Cc1cc2ncc(C(=O)N3CCOCC3)n2cc1-c1ccc2oc(N)nc2c1,> 10000,> 10000,> 10000,> 10000,
C[C@@H]1CN(C2CN(C(=O)c3cnc4ccc(-c5ccc6oc(N)nc6c5)cn34)C2)CCN1C,< 1000,< 100,< 10000,< 10000,
O=C(c1cnc2ccc(-c3ccc4c(Nc5ccccc5)noc4c3)cn12)N1CCOCC1,> 10000,> 10000,> 10000,> 10000,
C[C@H]1CN(C2CN(C(=O)c3cnc4ccc(-c5ccc6oc(N)nc6c5)cn34)C2)CCN1,< 1000,< 100,< 10000,< 10000,
C[C@@H]1CN(C2CN(C(=O)c3cnc4ccc(-c5ccc6oc(N)nc6c5)cn34)C2)CCN1,< 1000,< 100,< 10000,< 10000,
C[C@H]1CN(C2CN(C(=O)c3cnc4ccc(-c5ccc6oc(N)nc6c5)cn34)C2)CCN1C,< 1000,< 100,< 10000,< 10000,
CC1(C)CN(C(=O)c2cnc3ccc(-c4ccc5oc(N)nc5c4)cn23)CCO1,> 10000,< 1000,< 10000,> 10000,

Compound,IC50 [1] [nM],IC50 (PI3K α) [nM],IC50 (PI3K γ; read-out: PI3K δ IC50) [nM],IC50 (PI3K β) [nM],IC50 (PI3K γ; read-out: PI3K γ IC50) [nM]
CC1(C)COCCN1C(=O)c1cnc2ccc(-c3ccc4oc(N)nc4c3)cn12,> 10000,< 1000,> 10000,> 10000,
O=C(c1cnc2ccc(-c3cnc(Cl)c4[nH]ncc34)cn12)N1CCOCC1,> 10000,< 1000,> 10000,> 10000,
COc1ncc(-c2ccc3ncc(C(=O)N4CCOCC4)n3c2)c2cn[nH]c12,< 10000,< 1000,< 10000,> 10000,
CN1CCN(n2cnc3ccc(-c4ccc5oc(N)nc5c4)cc3c2=O)CC1,> 10000,< 1000,> 10000,> 10000,
CC(C)N1CCC(n2cnc3ccc(-c4cncc(NS(=O)(=O)c5ccc(F)cc5F)c4)cc3c2=O)CC1,< 10000,< 1000,< 1000,< 10000,
CC(C)N1CCC(n2cnc3ccc(-c4cncc(NS(C)(=O)=O)c4)cc3c2=O)CC1,> 10000,> 10000,> 10000,> 10000,
CC(C)N1CCC(n2cnc3ccc(-c4cnc(Cl)c(NS(=O)(=O)c5ccccc5)c4)cc3c2=O)CC1,< 100,< 100,< 1000,< 100,
COc1ncc(-c2ccc3ncn(C4CCN(C(C)C)CC4)c(=O)c3c2)cc1NS(=O)(=O)c1ccccc1,< 100,< 100,< 100,< 100,
CC(C)N1CCC(n2cnc3ccc(-c4cnc(Cl)c(NS(C)(=O)=O)c4)cc3c2=O)CC1,< 100,< 100,< 100,< 1000,
COc1ncc(-c2ccc3ncn(C4CCN(C)CC4)c(=O)c3c2)cc1NS(=O)(=O)c1ccccc1,< 100,< 100,< 1000,< 100,
COc1ncc(-c2ccc3ncn(C4CCN(C)CC4)c(=O)c3c2)cc1NS(C)(=O)=O,,< 100,< 10000,< 1000,
CN1CCC(n2cnc3ccc(-c4cnc(Cl)c(NS(C)(=O)=O)c4)cc3c2=O)CC1,< 1000,< 100,> 10000,< 10000,
CN1CCC(n2cnc3ccc(-c4cnc(Cl)c(NS(=O)(=O)c5ccccc5)c4)cc3c2=O)CC1,< 100,< 100,< 1000,< 100,
CN1CC(n2cnc3ccc(-c4ccc5oc(N)nc5c4)cc3c2=O)C1,> 10000,< 1000,> 10000,< 10000,
[2H]C1([2H])OC([2H])([2H])C([2H])([2H])N(C(=O)c2cnc3ccc(-c4ccc5oc(N)nc5c4)cn23)C1([2H])[2H],> 10000,< 1000,< 10000,> 10000,
C[C@@H]1CN(C2CN(c3cnc4ccc(-c5ccc6oc(N)nc6c5)nc4n3)C2)CCN1C,,< 100,,> 10000,< 10000
C[C@@H]1CN(c2cnc3ccc(-c4ccc5oc(N)nc5c4)nc3n2)CCN1,,< 100,,< 100,< 1000
CN(C)CC(=O)N1CCN(c2cnc3ccc(-c4ccc5oc(N)nc5c4)cc3n2)CC1 [drawing 407],< 1000,,< 1000,,

# Next, values leading:
IC50 [1] [nM],IC50 (PI3K α) [nM],IC50 (PI3K γ; read-out: PI3K δ IC50) [nM],IC50 (PI3K β) [nM],IC50 (PI3K γ; read-out: PI3K γ IC50) [nM],Compound
< 10000,< 100,< 100,< 10000,,Nc1nc2cc(-c3ccc4ncc(C(=O)N5CCC5)n4c3)ccc2o1
< 10000,< 100,< 1000,< 10000,,CS(=O)(=O)CCN1CCN(C(=O)c2cnc3ccc(-c4ccc5oc(N)nc5c4)cn23)CC1
< 100,< 100,< 100,< 10000,,CS(=O)(=O)CCN1CCC(NC(=O)c2cnc3ccc(-c4ccc5oc(N)nc5c4)cn23)CC1
< 10000,< 100,< 100,< 10000,,Nc1nc2cc(-c3ccc4ncc(C(=O)N5CC(O)C5)n4c3)ccc2o1
> 10000,< 100,,< 10000,,CC1CN(C(=O)c2cnc3ccc(-c4ccc5oc(N)nc5c4)cn23)CCO1 (centres unmarked)
< 10000,< 100,,< 10000,,Nc1nc2cc(-c3ccc4ncc(C(=O)N5CCC(O)C5)n4c3)ccc2o1 (centres unmarked)
< 1000,< 100,< 100,< 100,,CN1CCC(NC(=O)c2cnc3ccc(-c4ccc5oc(N)nc5c4)nn23)CC1
> 10000,< 100,> 10000,< 1000,,Nc1nc2cc(-c3ccc4ncc(C(=O)N5CCC(N)CC5)n4c3)ccc2o1
> 10000,< 100,> 10000,> 10000,,Nc1nc2cc(-c3ccc4ncn(C5CCC5)c(=O)c4c3)ccc2o1
> 10000,< 100,< 1000,> 10000,,CC(C)n1cnc2ccc(-c3ccc4oc(N)nc4c3)cc2c1=O
< 1000,< 100,< 100,< 100,,C[C@H](N)C(=O)N1CCN(c2cnc3ccc(-c4ccc5oc(N)nc5c4)cc3n2)CC1
< 1000,< 100,< 10000,< 1000,,C[C@@H](N)C(=O)N1CCN(c2cnc3ccc(-c4ccc5oc(N)nc5c4)cc3n2)CC1
< 10000,< 100,< 100,< 1000,,Nc1nc2cc(-c3ccc4ncc(N5CCC(O)C5)nc4c3)ccc2o1 (centres unmarked)
< 100,< 100,< 100,< 100,,CC(=O)N1CCC(Nc2ncnc3ccc(-c4ccc5oc(N)nc5c4)nc23)CC1
< 1000,< 100,< 1000,< 1000,,CN1CCC(Nc2ncnc3ccc(-c4ccc5oc(N)nc5c4)nc23)CC1
< 1000,< 100,> 10000,< 1000,,CC(C)(N)C(=O)N1CCN(c2cnc3ccc(-c4ccc5oc(N)nc5c4)cc3n2)CC1
< 10000,< 100,< 1000,< 100,,CNC(=O)C1CN(c2cnc3ccc(-c4ccc5oc(N)nc5c4)cc3n2)C1
< 10000,< 100,< 1000,< 1000,,Nc1nc2cc(-c3ccc4ncc(N5CC(C(=O)NC6CC6)C5)nc4c3)ccc2o1
< 10000,< 100,< 100,< 1000,,Nc1nc2cc(-c3ccc4ncc(N5CC(O)C5)nc4c3)ccc2o1
> 10000,< 100,,> 10000,,Cc1c(-c2ccc3oc(N)nc3c2)ccc2ncc(N3CC(N4CCNCC4)C3)nc12
